{
  "source": "patent US7259250B2",
  "about": "“C-nitroso compounds and use thereof” (Duke University, priority 2000, dated 2007)",
  "key": {"[1]": {"details": "cited from earlier work"}, "[2]": {"test_system": "rabbit aortic ring (smooth muscle)", "assay": "Relaxation of rabbit aortic ring (Example II, tension tracings FIGS. 1-10)", "format": "cell-based", "method": "The ability of various C-nitroso compounds as described below to relax a rabbit aortic ring (smooth muscle) was carried out as described in Stamler, J., et al., PNAS, Vol. 89, 444-448 (1992).\nResults shown in FIGS. 1-10 which are tracings of force (tension) in the Y-direction versus time in the X-direction with downward direction indicating relaxation and upward direction indicating constriction. Concentrations of C-nitroso compound applied at time in the X-direction are indicated as 10^−9 (1 nanomolar), 10^−6 (1 micromolar), 10^−3 (1 milimolar), etc. “PE” on the figures means the application of phenylephrine, a constricting agent."}, "[3]": {"assay": "Water solubility (dissolves in water at least to 1 micromolar)", "format": "physicochemical", "details": "water-soluble = dissolves in water at least to 1 micromolar", "excerpt": "As used herein, the term “water-soluble” means dissolves in water at least to provide a concentration of 1 micromolar."}, "person with angina": {"test_system": "person with angina", "assay": "Example IV: patient case, angina with nitrate tolerance", "format": "in vivo, human"}, "[4]": {"test_system": "person with arthritis, esophageal spasm, coronary artery disease, congestive heart failure, impotence and nightly urinary incontinence", "assay": "Example III: patient case, ibuprofen partly given as nitrosoketoibuprofen", "format": "in vivo, human"}, "[5]": {"details": "compound alone, at micromolar concentration(s)"}},
  "data": [
    {"molecule": "CC(C)C(=O)c1ccc(C(C)C(=O)O)cc1", "note": "(centres unmarked) [2-(4′-isobutyrylphenyl)propionic acid]", "values": [
      {"measurement": "carbon acid pKa", "setting": "[1]; of the named substance itself", "result": "about 20"}
    ]},
    {"molecule": "CC(C)(C)N=O", "note": "[2-methyl-2-nitrosopropane]", "values": [
      {"measurement": "relaxation activity (in words)", "setting": "[2]; compound alone, at any of the concentrations used, FIG. 10", "result": "no relaxation effect activity"},
      {"measurement": "water solubility (in words)", "setting": "[3]", "result": "not water soluble"}
    ]},
    {"molecule": "CCC(N=O)(C(C)=O)C(C)=O", "note": "[3-ethyl-3-nitroso-2,4-pentanedione]", "values": [
      {"measurement": "water solubility (in words)", "setting": "[3]", "result": "do not meet the definition of water solubility"}
    ]},
    {"molecule": "CC(=O)C(C)(N=O)C(C)=O", "note": "[3-methyl-3-nitroso-2,4-petanedione, 3-methyl-3-nitroso-2,4-pentanedione]", "values": [
      {"measurement": "concentration at which relaxation effect is displayed", "setting": "[2]; compound alone", "result": "greater than 10 micromolar"},
      {"measurement": "concentration at which further relaxation effect is displayed", "setting": "[2]; compound alone, FIG. 9", "result": "greater than 100 micromolar"},
      {"measurement": "pKa of the carbon acid from which the C-nitroso compound is obtained", "setting": "[1]; pKa of the parent carbon acid, not of the C-nitroso compound", "result": "less than 10"},
      {"measurement": "water solubility (in words)", "setting": "[3]", "result": "not water soluble"},
      {"measurement": "water solubility (in words)", "setting": "[3]; listed as 3-methyl-3-nitroso-2,4-pentanedione", "result": "do not meet the definition of water solubility"}
    ]},
    {"molecule": "O=Nc1ccccc1", "note": "[C-nitrosobenzene]", "values": [
      {"measurement": "relaxation activity (in words)", "setting": "[2]; [5]", "result": "no activity"}
    ]},
    {"molecule": "CC(C)(N=O)C(=O)CCC(=O)Oc1ccccc1C(=O)O", "note": "[Compound (129a)]", "values": [
      {"measurement": "concentration at which relaxation effect is shown", "setting": "[2]; compound alone, FIG. 1", "result": 10, "unit": "µM"}
    ]},
    {"molecule": "CC(=O)C1(C)CCC2CCCC[C@@H]2ON1O", "note": "(some centres unmarked) [Compound (135a)]", "values": [
      {"measurement": "outcome of angina", "setting": "person with angina; 20 μg/min continuously, after nitroglycerin stopped", "result": "relief of angina"}
    ]},
    {"molecule": "CC(C)Cc1ccc(C(C)C(=O)O)cc1", "note": "(centres unmarked) [ibuprofen]", "values": [
      {"measurement": "adverse effect", "setting": "[4]; ibuprofen 400 mg, three times a day", "result": "gastrointestinal upset"}
    ]},
    {"molecule": "O=[N+]([O-])OCC(CO[N+](=O)[O-])O[N+](=O)[O-]", "note": "[nitroglycerin]", "values": [
      {"measurement": "tolerance development", "setting": "person with angina; angina treated with nitroglycerin", "result": "nitrate tolerance"}
    ]},
    {"molecule": "CC(C(=O)O)c1ccc(C(=O)C(C)(C)[N+]([O-])=[N+]([O-])C(C)(C)C(=O)c2ccc(C(C)C(=O)O)cc2)cc1", "note": "(stereo not drawn) [nitrosoketoibuprofen, dimeric 2-[4′-(α-nitroso)isobutyrylphenyl]propionic acid]", "values": [
      {"measurement": "concentration at which relaxation effect is displayed", "setting": "[2]; compound alone, FIGS. 5 and 6", "result": 10, "unit": "nM"},
      {"measurement": "relaxation activity (in words)", "setting": "[2]; compound alone, at concentration higher than 10 nanomolar, FIG. 6", "result": "not much more activity"},
      {"measurement": "relaxation activity (in words)", "setting": "[2]; in conjunction with 100 μM glutathione, FIG. 7", "result": "no activity"},
      {"measurement": "activity (in words)", "setting": "[2]; without glutathione, at nanomolar concentrations", "result": "therapeutically active"},
      {"measurement": "outcome of symptoms", "setting": "[4]; ibuprofen 400 mg three times a day with 0.1% by weight of the drug as the dimeric nitrosoketoibuprofen", "result": "all symptoms are relieved"}
    ]},
    {"molecule": "C-nitrosophenol", "values": [
      {"measurement": "relaxation activity (in words)", "setting": "[2]; [5]", "result": "no activity"}
    ]}
  ]
}
